This experiment concerns B6C3F1 mice, B16 melanoma ip, median survival T/C. In words: NCI In Vivo Anticancer Drug Screen. Data for tumor model B16 Melanoma (intraperitoneal) in B6C3F1 mice. As to conditions: endpoint: median survival time, schedule: Q01DX009 (ip), higher = longer survival. The protocol: The antitumor activity of compounds was measured in mice bearing transplantable tumors. Survival or tumor size were measured and the results are expressed as the measurement made in the treated group (T) divided by the measurement made in the vehicle treated control group (C). The tumor model used in this assay is B16 Melanoma (intraperitoneal) in B6C3F1 mice

[1] abbreviates: dose: 6.25 mg/kg/injection, vehicle: saline with Tween-80.
[2] abbreviates: dose: 12.5 mg/kg/injection, vehicle: saline with Tween-80.
Where [3] appears, read: dose: 25.0 mg/kg/injection, vehicle: saline with Tween-80.
[4] abbreviates: dose: 50.0 mg/kg/injection, vehicle: saline with Tween-80.
The mark [5] stands for this setting: dose: 100.0 mg/kg/injection, vehicle: saline with Tween-80.
The mark [6] stands for this setting: dose: 200.0 mg/kg/injection, vehicle: saline with Tween-80.
Setting [7] is: dose: 0.78 mg/kg/injection, vehicle: Klucel (hydroxypropylcellulose) (HPC).
[8] abbreviates: dose: 1.56 mg/kg/injection, vehicle: Klucel (hydroxypropylcellulose) (HPC).
The mark [9] stands for this setting: dose: 3.12 mg/kg/injection, vehicle: Klucel (hydroxypropylcellulose) (HPC).
The mark [10] stands for this setting: dose: 10.0 mg/kg/injection, vehicle: saline.

Values joined by “and” are separate entries in the source; they are usually repeats but may differ in a detail not shown here. Equal values may be shown once. Toxic doses and inconclusive results are not listed.

For the compound `CC1/C=C/C=C/CC/C=C/C=C/C=C/C=C/C(OC2OC(C)C(O)C(N)C2O)CC2OC(CC(O)C(O)CCC(O)CC(O)CC(O)CC(=O)OC(C)C(C)C1O)CC(O)C2C(=O)O` (stereo unspecified), the T/C is, setting by setting: under setting [1], 107 % of control; under setting [2], 96 % of control; under setting [3], 102 % of control; under setting [4], 98 % of control; under setting [5], 90 % of control.

`O=C(N[C@H](CO)[C@H](O)c1ccc([N+](=O)[O-])cc1)C(Cl)Cl`: the T/C under setting [4] is 117 % of control; the T/C under setting [5] was 103 % of control; the T/C under setting [6] was 109 % of control; the T/C (dose: 400.0 mg/kg/injection, vehicle: saline with Tween-80) was 97 % of control; the T/C (dose: 800.0 mg/kg/injection, vehicle: saline with Tween-80) was 100 % of control.

`O=C(Nc1cccc(Cl)c1)C1CCCC1=Nc1cccc(Cl)c1` (stereo unspecified): the T/C is, setting by setting: under setting [4], 99 % of control; under setting [5], 96 % of control; under setting [6], 91 % of control.

Take `CCCC(=O)OCC1OC(n2cnc3c(=S)nc(N)[nH]c32)C(OC(=O)CCC)C1OC(=O)CCC` (stereo unspecified): the T/C under setting [7] is 103 % of control; the T/C under setting [8] is 104 % of control; the T/C under setting [9] was 110 % of control; the T/C (dose: 6.25 mg/kg/injection, vehicle: Klucel (hydroxypropylcellulose) (HPC)) was 114 % of control.

Consider `NC(=O)c1ccc(N)nc1`, for which the T/C was 113 % of control (dose: 0.5 mg/kg/injection, vehicle: saline); 119 % of control (dose: 1.0 mg/kg/injection, vehicle: saline); 117 % of control (dose: 2.0 mg/kg/injection, vehicle: saline).

Consider `CC(=O)c1ccc(C)cc1C`, for which the T/C is, setting by setting: under setting [3], 105 % of control; under setting [4], 92 % of control; under setting [5], 98 % of control.

As to `C/C(=N\NC(=S)N1CC2CCC(CC2)C1)c1nccs1`, the T/C is 100 % of control under setting [1], 107 % of control under setting [2] and 105 % of control under setting [3].

On to `CC(C)(O)/C=C/C(=O)[C@](C)(O)[C@H]1[C@H](O)C[C@@]2(C)[C@@H]3CC=C4[C@@H](C=C(O)C(=O)C4(C)C)[C@]3(C)C(=O)C[C@]12C`, for which the T/C (dose: 0.25 mg/kg/injection, vehicle: water) was 99 % of control; the T/C (dose: 0.5 mg/kg/injection, vehicle: water) is 89 % of control; the T/C (dose: 1.0 mg/kg/injection, vehicle: water) is 89 % of control.

In the case of `c1cc2c(c(CC3CO3)c1CC1CO1)OCCOCCOCCOCCO2` (stereo unspecified), the T/C by setting is: (dose: 6.25 mg/kg/injection, vehicle: saline + alcohol) 102 % of control; (dose: 12.5 mg/kg/injection, vehicle: saline + alcohol) 112 % of control; (dose: 25.0 mg/kg/injection, vehicle: saline + Tween-80 + alcohol) 113 % of control; (dose: 25.0 mg/kg/injection, vehicle: saline + alcohol) 112 % of control; (dose: 50.0 mg/kg/injection, vehicle: saline + Tween-80 + alcohol) 113 % of control; (dose: 50.0 mg/kg/injection, vehicle: saline + alcohol) 119 % of control and 108 % of control. In addition, the T/C is 122 % of control (dose: 100.0 mg/kg/injection, vehicle: saline + Tween-80 + alcohol); 113 % of control and 123 % of control (dose: 100.0 mg/kg/injection, vehicle: saline + alcohol); 109 % of control (dose: 200.0 mg/kg/injection, vehicle: saline + alcohol).

In the case of `NC1(C(=O)O)CCCc2ccc(N(CCCl)CCCl)cc21` (stereo unspecified), the T/C was 120 % of control (dose: 2.5 mg/kg/injection, vehicle: saline); 121 % of control (dose: 10.0 mg/kg/injection, vehicle: saline with Tween-80); 157 % of control under setting [10]; 189 % of control (dose: 20.0 mg/kg/injection, vehicle: saline).

On to `CCCCCCC/C=C/C(=O)OC1C(OC2C(OC(CCCCCCC)CC(=O)OC(CCCCCCC)CC(=O)O)OC(C)C(O)C2O)OC(C)C(O)C1O` (stereo unspecified), for which the T/C by setting is: under setting [7], 103 % of control; under setting [8], 87 % of control; under setting [9], 94 % of control.

As to `COc1ccc2c(c1OC(C)=O)-c1cc(O)cc3c1C(C2)N(C(=O)CN(CCCl)CCCl)CC3` (stereo unspecified), the T/C (dose: 3.12 mg/kg/injection, vehicle: saline with Tween-80) was 164 % of control; the T/C under setting [1] was 153 % of control; the T/C under setting [2] is 207 % of control.

In the case of `CCOc1ccccc1C(=O)Nc1ccc(Br)cc1`, the T/C is, setting by setting: (dose: 50.0 mg/kg/injection, vehicle: Klucel (hydroxypropylcellulose) (HPC)) 117 % of control; (dose: 200.0 mg/kg/injection, vehicle: Klucel (hydroxypropylcellulose) (HPC)) 117 % of control.

Take `NC(=O)C1=CC2C3C=CC2(O)C(=O)OC3O1` (stereo unspecified): the T/C by setting is: (dose: 3.75 mg/kg/injection, vehicle: Klucel (hydroxypropylcellulose) (HPC)) 108 % of control and 123 % of control; (dose: 7.5 mg/kg/injection, vehicle: Klucel (hydroxypropylcellulose) (HPC)) 118 % of control and 107 % of control; (dose: 15.0 mg/kg/injection, vehicle: Klucel (hydroxypropylcellulose) (HPC)) 114 % of control and 123 % of control.

For the compound `O=CC(CO)CC(C=O)n1cnc2c(=O)[nH]cnc21` (stereo unspecified), the T/C is 106 % of control (dose: 37.5 mg/kg/injection, vehicle: saline); 108 % of control (dose: 75.0 mg/kg/injection, vehicle: saline); 100 % of control (dose: 150.0 mg/kg/injection, vehicle: saline); 111 % of control (dose: 300.0 mg/kg/injection, vehicle: saline).

As for `CCCC(=O)O`, the T/C is 100 % of control (dose: 12.5 mg/kg/injection, vehicle: saline); 96 % of control (dose: 25.0 mg/kg/injection, vehicle: saline); 93 % of control (dose: 50.0 mg/kg/injection, vehicle: saline); 98 % of control (dose: 100.0 mg/kg/injection, vehicle: saline); 93 % of control (dose: 200.0 mg/kg/injection, vehicle: saline).

With `CC(C)=CC(=O)OC1C2C(C)=CC(=O)C(O)C2(C)C2C3(O)OCC24C(CC(=O)OC14)C(C)C3O` (stereo unspecified), the T/C reads like this: (dose: 0.25 mg/kg/injection, vehicle: distilled water + Tween-80) 163 % of control and 168 % of control; (dose: 0.5 mg/kg/injection, vehicle: distilled water + Tween-80) 150 % of control and 160 % of control and 168 % of control.

In the case of `O=C(O)/C=C/C(=O)N1Cc2cc3ccccc3nc2C1`, the T/C is, setting by setting: under setting [2], 110 % of control; under setting [3], 99 % of control; under setting [4], 98 % of control; under setting [5], 94 % of control; under setting [6], 95 % of control.

Regarding `Nc1nc(=S)c2ncn(C3OC(CO)CC3O)c2[nH]1` (stereo unspecified), the T/C is 110 % of control (dose: 5.0 mg/kg/injection, vehicle: saline); 122 % of control under setting [10]; 94 % of control (dose: 40.0 mg/kg/injection, vehicle: saline).

For the compound `COc1cc2cc(c1Cl)N(C)C(=O)CC(O)C1(C)OC1C(C)C1CC(O)(NC(=O)O1)C(OC)/C=C/C=C(C)C2OC` (stereo unspecified), the T/C (dose: 4.0 micrograms/kg/injection, vehicle: distilled water + alcohol) was 105 % of control; the T/C (dose: 8.0 micrograms/kg/injection, vehicle: distilled water + alcohol) is 96 % of control; the T/C (dose: 16.0 micrograms/kg/injection, vehicle: distilled water + alcohol) is 102 % of control; the T/C (dose: 32.0 micrograms/kg/injection, vehicle: distilled water + alcohol) is 88 % of control.

Values taken from PubChem BioAssay AID200 (DTP/NCI, 2004).
